ChEMBL document CHEMBL5236653, “Dual functional antioxidant and butyrylcholinesterase inhibitors for the treatment of Alzheimer's disease: Design, synthesis and evaluation of novel melatonin-alkylbenzylamine hybrids” (Bioorg Med Chem, 2023)

How the values were obtained:
[1] = test system: Mus musculus; experiment: Antialzheimer activity in scopolamine-induced cognitive impairment Kunming mouse model assessed as step down latency time at 20 mg/kg, po administered for 1 hr followed by scopolamine induction for 0.5 hr and measured after 5 min (Rvb=36.25 sec); assay type: functional; conditions: time 95 min, 1.583 h
[2] = biological target: Acetylcholinesterase (Electrophorus electricus, UniProt O42275); experiment: Inhibition of electric eel AChE using ATCI and BTCI as substrate preincubated for 5 mins followed by substrate addition and measured after 3 mins by DTNB-reagent based Ellman's method
Chain of Acetylcholinesterase (Electrophorus electricus, UniProt O42275) (O42275 whole entry): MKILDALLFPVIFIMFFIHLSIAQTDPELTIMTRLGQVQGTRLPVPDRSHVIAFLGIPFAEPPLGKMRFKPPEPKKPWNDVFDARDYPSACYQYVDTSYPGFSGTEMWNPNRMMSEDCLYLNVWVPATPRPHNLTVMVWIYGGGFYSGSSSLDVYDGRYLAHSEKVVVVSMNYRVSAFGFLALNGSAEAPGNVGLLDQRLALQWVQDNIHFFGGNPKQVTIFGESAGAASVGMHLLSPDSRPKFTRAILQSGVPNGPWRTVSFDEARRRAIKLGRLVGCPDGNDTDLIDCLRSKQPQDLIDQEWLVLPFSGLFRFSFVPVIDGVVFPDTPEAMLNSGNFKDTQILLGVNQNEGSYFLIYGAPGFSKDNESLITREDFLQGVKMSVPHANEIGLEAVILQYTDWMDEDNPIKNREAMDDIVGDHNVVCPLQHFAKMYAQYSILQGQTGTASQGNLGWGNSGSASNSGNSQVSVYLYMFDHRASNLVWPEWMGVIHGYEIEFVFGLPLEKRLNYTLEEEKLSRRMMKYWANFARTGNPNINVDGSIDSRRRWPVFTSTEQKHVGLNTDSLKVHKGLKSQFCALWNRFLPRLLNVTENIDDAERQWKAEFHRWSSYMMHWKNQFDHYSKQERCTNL

[3] = Acute toxicity in Kunming mouse assessed as abnormalities in brain at 2500 mg/kg, po measured on day 14 by H and E staining based histopathological analysis; assay type: organism-based; conditions: in vivo, 336 h, time 14 day
[4] = test system: Mus musculus; experiment: Antialzheimer activity in scopolamine-induced cognitive impairment Kunming mouse model assessed as number of errors in step down test at 80 mg/kg, po administered for 1 hr followed by scopolamine induction for 0.5 hr and measured after 5 min; assay type: functional; conditions: time 95 min, 1.583 h
[5] = biological target: T1, Acetylcholinesterase (Homo sapiens, UniProt P22303); experiment: Inhibition of human erythrocyte AChE using ATCI and BTCI as substrate preincubated for 5 mins followed by substrate addition and measured after 3 mins by DTNB-reagent based Ellman's method
T1 sequence (P22303 whole entry): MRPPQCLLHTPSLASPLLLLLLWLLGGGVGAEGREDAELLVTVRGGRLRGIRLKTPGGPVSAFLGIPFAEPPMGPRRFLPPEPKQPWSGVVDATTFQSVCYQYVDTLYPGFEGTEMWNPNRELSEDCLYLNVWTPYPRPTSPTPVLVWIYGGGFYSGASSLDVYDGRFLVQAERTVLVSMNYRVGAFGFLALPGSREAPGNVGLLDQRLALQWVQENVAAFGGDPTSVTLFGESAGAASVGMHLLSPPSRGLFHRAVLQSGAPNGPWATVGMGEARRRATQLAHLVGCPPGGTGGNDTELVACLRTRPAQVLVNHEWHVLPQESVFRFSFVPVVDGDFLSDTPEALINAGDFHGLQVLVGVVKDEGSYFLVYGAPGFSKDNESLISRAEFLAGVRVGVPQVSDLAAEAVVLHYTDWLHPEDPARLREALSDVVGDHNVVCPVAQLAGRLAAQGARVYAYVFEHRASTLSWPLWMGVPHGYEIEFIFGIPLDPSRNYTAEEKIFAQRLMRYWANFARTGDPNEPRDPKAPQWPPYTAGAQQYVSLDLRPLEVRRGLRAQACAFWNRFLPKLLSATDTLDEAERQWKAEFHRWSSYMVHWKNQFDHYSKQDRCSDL

[6] = test system: PC-12; experiment: Activation of Nrf2-ARE pathway in rat PC-12 cells assessed as increase in Nrf2 expression level incubated for 4 to 8 hrs by Western blot analysis; assay type: cell-based; conditions: filed as activator, dose >= 2.0 µM, time 4-8 hrs
[7] = Acute toxicity in Kunming mouse assessed as abnormalities in liver at 2500 mg/kg, po measured on day 14 by H and E staining based histopathological analysis; assay type: organism-based; conditions: in vivo, 336 h, time 14 day
[8] = in vitro; conditions: PAMPA
Description: Permeability coefficient of the compound across blood brain barrier incubated for 18 hrs by PAMPA assay

[9] = test system: PC-12; experiment: Activation of Nrf2-ARE pathway in rat PC-12 cells assessed as upregulation of GPX4 expression level incubated for 8 hrs by Western blot analysis; assay type: cell-based; conditions: filed as activator, dose >= 2.0 µM
[10] = Selectivity index, ratio of IC50 for inhibition of human erythrocyte AChE to IC50 for inhibition of human serum BuChE
[11] = test system: Mus musculus; experiment: Antialzheimer activity in scopolamine-induced cognitive impairment Kunming mouse model assessed as number of errors in step down test at 20 mg/kg, po administered for 1 hr followed by scopolamine induction for 0.5 hr and measured after 5 min (Rvb=2.2); assay type: functional; conditions: time 95 min, 1.583 h
[12] = Acute toxicity in Kunming mouse assessed as abnormalities in lung at 2500 mg/kg, po measured on day 14 by H and E staining based histopathological analysis; assay type: organism-based; conditions: in vivo, 336 h, time 14 day
[13] = test system: PC-12; experiment: Activation of Nrf2-ARE pathway in rat PC-12 cells assessed as increase in Nrf2 expression level in nucleus at 1 uM by Western blot analysis; assay type: cell-based; conditions: filed as activator, time >= 8.0 hrs, TDE = time-dependent effect
[14] = biological target: T2, Cholinesterase (Homo sapiens, UniProt P06276); experiment: Mixed type inhibition of human BuChE assessed as inhibition constant using butyrylthiocholine iodide as substrate by lineweaver-burk plot analysis
T2 sequence (P06276 whole entry): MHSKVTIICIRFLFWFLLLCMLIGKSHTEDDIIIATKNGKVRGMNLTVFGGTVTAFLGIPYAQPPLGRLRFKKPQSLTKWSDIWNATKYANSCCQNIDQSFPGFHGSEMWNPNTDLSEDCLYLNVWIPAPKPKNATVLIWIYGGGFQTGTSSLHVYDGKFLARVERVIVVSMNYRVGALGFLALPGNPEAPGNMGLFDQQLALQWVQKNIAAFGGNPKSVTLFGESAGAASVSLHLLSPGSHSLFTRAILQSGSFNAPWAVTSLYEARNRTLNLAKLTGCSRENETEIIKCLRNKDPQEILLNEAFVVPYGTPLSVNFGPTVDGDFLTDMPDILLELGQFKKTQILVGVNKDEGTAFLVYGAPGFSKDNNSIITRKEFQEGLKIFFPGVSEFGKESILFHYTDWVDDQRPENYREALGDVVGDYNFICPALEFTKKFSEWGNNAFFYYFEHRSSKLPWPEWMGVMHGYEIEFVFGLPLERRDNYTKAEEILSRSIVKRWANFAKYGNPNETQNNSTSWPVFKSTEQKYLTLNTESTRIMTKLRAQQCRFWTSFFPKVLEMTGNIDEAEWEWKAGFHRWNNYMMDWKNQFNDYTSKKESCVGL

[15] = biological target: T2, Cholinesterase; experiment: Inhibition of human serum BuChE using ATCI and BTCI as substrate preincubated for 5 mins followed by substrate addition and measured after 3 mins by DTNB-reagent based Ellman's method; assay type: cell-free
[16] = Acute toxicity in Kunming mouse at >= 2500 mg/kg, IG measured for 14 days; assay type: organism-based; conditions: in vivo, po, 336 h, time 14 day
[17] = Acute toxicity in Kunming mouse assessed as effect on body weight at 625 to 2500 mg/kg, po measured at 4 to 14 days; assay type: organism-based; conditions: in vivo, dose lower 625 mg/kg, time lower 4 day, dose upper 2500 mg/kg, time upper 14 day
[18] = test system: PC-12; experiment: Activation of Nrf2-ARE pathway in rat PC-12 cells assessed as upregulation of NQO1 expression level incubated for 8 hrs by Western blot analysis; assay type: cell-based; conditions: filed as activator, dose >= 2.0 µM
[19] = Acute toxicity in Kunming mouse assessed as abnormalities in kidney at 2500 mg/kg, po measured on day 14 by H and E staining based histopathological analysis; assay type: organism-based; conditions: in vivo, 336 h, time 14 day
[20] = biological target: Cholinesterase (Equus caballus, UniProt P81908); experiment: Inhibition of equine serum BuChE using ATCI and BTCI as substrate preincubated for 5 mins followed by substrate addition and measured after 3 mins by DTNB-reagent based Ellman's method; assay type: cell-free
Chain of Cholinesterase (Equus caballus, UniProt P81908) (P81908 whole entry): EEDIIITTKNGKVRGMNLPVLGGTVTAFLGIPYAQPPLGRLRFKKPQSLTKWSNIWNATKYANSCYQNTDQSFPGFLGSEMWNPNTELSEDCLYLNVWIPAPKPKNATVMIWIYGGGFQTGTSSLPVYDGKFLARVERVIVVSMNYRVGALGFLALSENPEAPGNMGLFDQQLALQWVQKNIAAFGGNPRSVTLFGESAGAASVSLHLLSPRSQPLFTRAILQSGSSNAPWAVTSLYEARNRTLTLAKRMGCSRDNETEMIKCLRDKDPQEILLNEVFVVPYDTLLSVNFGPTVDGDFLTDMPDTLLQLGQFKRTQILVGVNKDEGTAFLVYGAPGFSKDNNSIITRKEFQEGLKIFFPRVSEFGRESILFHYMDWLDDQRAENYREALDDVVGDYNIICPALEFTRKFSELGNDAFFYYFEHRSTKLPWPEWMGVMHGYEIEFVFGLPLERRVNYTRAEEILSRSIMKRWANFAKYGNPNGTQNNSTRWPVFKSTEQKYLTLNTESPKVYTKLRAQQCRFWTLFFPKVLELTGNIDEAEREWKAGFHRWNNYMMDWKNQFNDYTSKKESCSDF

[21] = Antioxidant activity assessed as trolox equivalent of ORAC radical scavenging activity by ORAC assay; assay type: functional
[22] = Cytotoxicity against mouse BV-2 cells assessed as cell viability at 10 uM measured after 24 hrs by CCK-8 assay; assay type: toxicity, cell-based; conditions: read-out: Activity
[23] = test system: PC-12; experiment: Cytotoxicity against rat PC12 cells assessed as cell viability at 0.625 to 10 uM measured after 24 hrs by CCK-8 assay; assay type: toxicity, cell-based; conditions: pc-12, 24 h, dose 0.625-10 µM
[24] = test system: Mus musculus; experiment: Antialzheimer activity in scopolamine-induced cognitive impairment Kunming mouse model assessed as step down latency time at 80 mg/kg, po administered for 1 hr followed by scopolamine induction for 0.5 hr and measured after 5 min; assay type: functional; conditions: time 95 min, 1.583 h
[25] = Selectivity index, ratio of IC50 for inhibition of human erythrocyte AChE to inhibition of human serum BuChE
[26] = biological target: T1, Acetylcholinesterase; experiment: Inhibition of human erythrocyte AChE at 100 uM using ATCI and BTCI as substrate preincubated for 5 mins followed by substrate addition and measured after 3 mins by DTNB-reagent based Ellman's method relative to control; conditions: time 8.0 min
[27] = Selectivity index, ratio of IC50 for inhibition of equine serum BuChE to inhibition of electric eel AChE
[28] = biological target: Acetylcholinesterase (Electrophorus electricus) (UniProt O42275); experiment: Inhibition of electric eel AChE at 100 uM using ATCI and BTCI as substrate preincubated for 5 mins followed by substrate addition and measured after 3 mins by DTNB-reagent based Ellman's method relative to control; conditions: time 8.0 min
Chain of Acetylcholinesterase (Electrophorus electricus) (O42275 24-633 limits assumed): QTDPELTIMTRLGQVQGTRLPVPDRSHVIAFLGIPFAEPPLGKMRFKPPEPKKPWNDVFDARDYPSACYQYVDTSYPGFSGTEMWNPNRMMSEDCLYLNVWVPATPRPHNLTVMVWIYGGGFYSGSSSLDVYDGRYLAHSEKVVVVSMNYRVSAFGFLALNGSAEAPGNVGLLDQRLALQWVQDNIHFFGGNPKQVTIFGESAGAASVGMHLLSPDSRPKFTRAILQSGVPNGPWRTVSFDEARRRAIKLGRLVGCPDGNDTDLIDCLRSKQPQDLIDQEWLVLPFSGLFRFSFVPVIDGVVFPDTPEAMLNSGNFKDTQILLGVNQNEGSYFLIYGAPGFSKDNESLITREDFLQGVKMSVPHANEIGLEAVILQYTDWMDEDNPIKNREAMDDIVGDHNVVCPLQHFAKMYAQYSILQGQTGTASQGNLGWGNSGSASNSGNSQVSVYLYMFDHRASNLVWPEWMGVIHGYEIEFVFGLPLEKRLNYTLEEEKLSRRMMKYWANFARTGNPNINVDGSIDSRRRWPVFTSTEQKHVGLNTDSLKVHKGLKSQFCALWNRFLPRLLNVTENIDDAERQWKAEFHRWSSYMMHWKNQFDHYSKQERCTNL

Structure (SMILES)	IC50 [2] [µM]	IC50 [5] [µM]	Papp at 18 h [8] [×10⁻⁶ cm/s]	Ratio IC50 [10]	IC50 [15] [µM]	IC50 [20] [µM]	Activity [21] [equiv]	further results
CN(CCCCCCCCCCCCn1cc(C=O)c2cc(O)ccc21)Cc1cccc(O)c1	69.5	177	9.98	148	1.2	2.14	5.13	Time [1]: 17.6 s; Activity [3]: Non-Toxic; Activity [4]: 0.6; Activity [6]: Dose-Dependent Effect; Activity [7]: Non-Toxic; Activity [9]: Dose-Dependent Effect; Activity [11]: 2.5; Activity [12]: Non-Toxic; Activity [13]: Tde; Ki [14]: 1.77 µM; Activity [16]: Non-Toxic; Activity [17]: Non-Toxic; Activity [18]: Dose-Dependent Effect; Activity [19]: Non-Toxic; viability at 24 h, 10 µM [22]: > 50%; Activity [23]: Non-Toxic; Time [24]: 233 s
COc1cccc(CN(C)CCCCCCCCCCCCn2cc(C=O)c3cc(OC)ccc32)c1	69.1	–	1.82	–	5.49	0.43	< 0.01	Selectivity Index [25]: > 200; inhibition [26]: 46.1%
COc1ccc2c(c1)c(C=O)cn2CCCCCN(C)Cc1ccc(O)cc1	26.9	–	–	–	–	6.19	0.78	–
COc1ccc2c(c1)c(C=O)cn2CCCN(C)Cc1ccc(O)cc1	67.6	–	5.69	–	–	6.53	1.12	–
COc1ccc2c(c1)c(C=O)cn2CCCN(C)Cc1cccc(O)c1	–	–	–	–	–	72.3	0.37	Selectivity Index [27]: > 1; inhibition [28]: 48.1%
COc1ccc2c(c1)c(C=O)cn2CCCCCCCCN(C)Cc1cccc(O)c1	3.39	2.6	6.05	1.21	2.15	5.26	0.22	–
CN(C)CCCN1c2ccccc2Sc2ccc(Cl)cc21 [CHLORPROMAZINE]	–	–	5.93	–	–	–	–	–
COc1ccc2c(c1)c(C=O)cn2CCCCCCCCCCCCN(C)Cc1ccc(O)cc1	33.8	60.6	10	–	0.26	1.04	< 0.01	Selectivity Index [25]: > 100
COc1ccc2c(c1)c(C=O)cn2CCCCN(C)Cc1ccc(O)cc1	65.2	–	–	–	–	20.1	0.91	–
COc1ccc2c(c1)c(C=O)cn2CCCCCCCCCCCCN(C)Cc1ccc(OC)c(OC)c1	51.8	–	5.27	–	–	0.88	< 0.01	–
COc1ccc2c(c1)c(C=O)cn2CCCCCCCCCCCCN(C)Cc1cccc(O)c1	27.6	76.5	4.71	510	0.15	0.31	< 0.01	–
COc1ccc2c(c1)c(C=O)cn2CCCCCCN(C)Cc1ccc(O)cc1	0.54	–	–	–	–	7.2	0.61	–
COc1ccc2c(c1)c(C=O)cn2CCCCCCCCN(C)Cc1ccc(O)cc1	1.77	2.06	4.62	4.2	0.49	0.45	0.28	–
COc1ccc2c(c1)c(C=O)cn2CCCCCCN(C)Cc1cccc(O)c1	0.81	–	–	–	–	16.2	0.82	–
C[C@]12CC[C@@H]3c4ccc(O)cc4CC[C@H]3[C@@H]1CC[C@@H]2O [ESTRADIOL]	–	–	14.1	–	–	–	–	–
COc1ccc2c(c1)c(C=O)cn2CCCCN(C)Cc1cccc(O)c1	–	–	–	–	–	42	< 0.01	Selectivity Index [27]: > 2; inhibition [28]: 48.2%
COc1ccc2c(c1)c(C=O)cn2CCCCCCCCCN(C)Cc1ccc(O)cc1	25.8	6.23	5.85	16	0.39	0.53	< 0.01	–
O=c1c(O)c(-c2ccc(O)c(O)c2)oc2cc(O)cc(O)c12	–	–	–	–	–	–	6.14	–
COc1ccc2c(c1)c(C=O)cn2CCCCCCCCCCN(C)Cc1cccc(O)c1	3.1	4.52	5.76	23.8	0.19	0.61	< 0.01	–
COc1ccc2c(c1)c(C=O)cn2CCCCCCCCCCN(C)Cc1ccc(O)cc1	1.47	0.6	5.46	3.16	0.19	0.12	0.05	–
COc1ccc2c(c1)c(C=O)cn2CCCCCCCCCN(C)Cc1cccc(O)c1	3.36	5.19	–	2.2	2.36	1.63	< 0.01	–
CCN(CCCCCCCCCCCCn1cc(C=O)c2cc(OC)ccc21)Cc1cccc(O)c1	10.5	42.5	8.18	48.3	0.88	0.19	0.13	–
COc1ccc2c(c1)c(C=O)cn2CCCCCCCN(C)Cc1cccc(O)c1	1.39	5.54	4.78	1.13	4.89	5.47	< 0.01	–
COc1ccc2c(c1)c(C=O)cn2CCCCCCCCCCCCCCN(C)Cc1cccc(O)c1	31.6	–	–	–	–	8.76	< 0.01	–
COc1ccc2c(c1)c(C=O)cn2CCCCCN(C)Cc1cccc(O)c1	7.13	–	–	–	–	45.4	0.2	–
COc1ccc2c(c1)c(C=O)cn2CCCCCCCN(C)Cc1ccc(O)cc1	1.43	1.61	4.19	1.81	0.89	2.1	1.55	–
COc1ccc(CN(C)CCCCCCCCCCCCn2cc(C=O)c3cc(OC)ccc32)cc1	79.9	–	4.09	233	0.43	5.49	< 0.01	inhibition [26]: 46.1%
